Measurements published in patent US20190054054A1, “Methods reducing or preventing oxidation of high density lipoprotein (HDL)” (Amarin Pharmaceuticals Ireland Limited, priority 2017, published 2019).

Columns and labels:
HUVECs = assay: NO and ONOO^− release from HUVECs pretreated with agents, then exposed to oxLDL (Example 11, Objective 1); format: cell-based, human; conditions: pretreatment 30 min, agents at 10 μM, then oxLDL 11 mg/dL up to 3 hr; for NO / ONOO^−: calcium ionophore 1.0 μM
Experimental: The omega-3 fatty acid, cis-5,8,11,14,17-eicosapentaenoic acid (EPA) and docosahexaenoic acid (DHA) were purchased from Sigma-Aldrich (Saint Louis, Mo.) and solubilized in redistilled ethanol to 11 mM under nitrogen atmosphere. EPA and DHA stock solutions were stored at −20° C. until use.
Human umbilical vein endothelial cells (HUVECs) were obtained from healthy, female donors and isolated into primary, proliferating cell cultures (Clonetics, San Diego, Calif.). […] The confluent cells (4 to 5×10^5 cells/35 mm dish) were plated with minimum essential medium containing 3 mM L-arginine and 0.1 mM BH4 [(6R)-5,6,7,8-tetrahydrobiopterin]. Before experimental use, the cells (from second or third passage) were rinsed twice with Tyrode-HEPES buffer with 1.8 mM CaCl2.
Venous blood was collected from healthy volunteers into vacutainer tubes containing sodium EDTA. […] The LDL subfraction was retained for additional experimentation. Plasma and lipoprotein fractions were maintained at 4° C. and protected from excessive exposure to light. Prior to oxidation experiments, EDTA was removed from the lipoprotein fraction using PD-10 desalting columns (GE Healthcare, Piscataway N.J.). After equilibration of the column with phosphate buffered saline (PBS), 2.5 mL of the lipoprotein fraction was loaded on the column and the flow-through discarded. The lipoprotein was then eluted with 3 mL of PBS. The LDL fractions were further diluted with PBS to obtain a 100 μg/mL apoB100 concentration.
LDL underwent oxidation following the addition of 10 μM CuSO4. To measure oxidation, 100 μL aliquots were removed and combined with 1.0 mL thiobarbituric acid (0.5%), 10 μL trichloroacetic acid (5%), 10 μL BHT (5 mg/mL in methanol), and 10 μL EDTA (5 mM). […] Sample TBARS concentrations were determined spectrophotometrically by measuring sample absorbances against a standard curve derived from the hydrolysis of 1,1,3,3-tetramethoxypropane.
Concurrent measurements of NO and ONOO^− were performed with tandem electrochemical nanosensors combined into one working unit with a total diameter of 200-400 nm. Their design is based on previously developed and chemically modified carbon-fiber technology. Each of the nanosensors was made by depositing a sensing material on the tip of a carbon fiber (length 4 to 5 μm, diameter 100-200 nm). The fibers were sealed with nonconductive epoxy and electrically connected to copper wires with conductive silver epoxy. Conductive films of polymeric Ni(II) tetrakis (3-methoxy-4-hydroxyphenyl) porphyrin and Mn(III) [2.2] paracyclophanyl-porphyrin were used for the NO and ONOO^− sensors, respectively.
The amperometric method (with a response time of 0.1 ms) provides a quantitative signal (current) that is directly proportional to changes (from basal levels) in NO or ONOO^− concentration. Amperometric measurements were performed with a Gamry III double-channel potentiostat. Basal NO or ONOO^− levels were measured by differential pulse voltammetry in separate experiments.
All measurements of NO and ONOO^− were performed on intact endothelial cells. The NO/ONOO^− nanosensor module was positioned 5±2 μm from the surface of each individual endothelial cell using a computer-controlled M3301 micromanipulator (x-y-z resolution of 0.2 μm) and microscope (both from World Precision Instruments, Berlin, Germany) fitted with a CD camera. […] Cells will then be treated with calcium ionophore (to maximally stimulate the release of nitrous molecules) and monitored continuously for changes in amperometric current.
Data are presented as mean+S.D. for (N) separate samples or treatment groups. Differences between groups were analyzed using the two-tailed, Student's t-test (for comparisons between only two groups) or ANOVA followed by Dunnett or Student-Newman-Keuls multiple comparisons post-hoc analysis (for comparisons between three or more groups). Alpha error was set to 0.05 in this study.
NO and ONOO^− release were measured following stimulation with calcium.

human sdLDL = assay: Copper-induced sdLDL oxidation, TBARS (Example 7); format: biochemical; conditions: for effect on sdLDL oxidation as compared to vehicle-treated controls: all at 10 μM, 1 hour (FIG. 16)
Experimental: An experiment to study the antioxidant effect of EPA in LDL and small dense […] performed. […] Fenofibrate, gemfibrozil, and niacin were purchased from Sigma-Aldrich. […] Vitamin E was also incubated with sample aliquots as a positive control.

[1] = system: sdLDL isolated from human subjects under conditions of hyperglycemia; assay: Glucose-induced sdLDL oxidation, MDA/TBARS (Example 10); format: biochemical; conditions: 200 mg/dL glucose; for effect on glucose-induced sdLDL oxidation: 10.0 μM
Experimental: Vitamin E (α-tocopherol) purchased from Sigma-Aldrich was prepared in ethanol at 1.0 mM (E=[…] at 294 nm) prior to experimental use. Test compounds were further diluted in ethanol or aqueous buffer as needed. Phosphate Buffered Saline (PBS) purchased from Sigma-Aldrich was prepared in double distilled water at 10 mM (138 mM NaCl, 2.7 mM KCl, pH 7.4). […] Lipid oxidation was measured by the colorimetric detection of malondialdehyde (MDA), a marker of oxidative stress. Data were presented as mean±SD for (n) separate samples or experiments. Differences between groups were analyzed using the unpaired, two-tailed Student's t-test (for comparisons between only two groups) or ANOVA followed by Student-Newman-Keuls multiple comparisons post hoc analysis (for comparisons between three or more groups).

| Compound | NO (HUVECs) | ONOO^− (HUVECs) | effect on sdLDL oxidation as compared to vehicle-treated controls (human sdLDL) | effect on glucose-induced sdLDL oxidation [1] | NO/ONOO^− Ratio (HUVECs) | also measured |
| --- | --- | --- | --- | --- | --- | --- |
| CC/C=C\C/C=C\C/C=C\C/C=C\C/C=C\C/C=C\CCC(=O)O [DHA, docosahexaenoic acid] | 378 ± 5 | 229 ± 16 | – | – | – | – |
| CC/C=C\C/C=C\C/C=C\C/C=C\C/C=C\CCCC(=O)O [EPA, cis-5,8,11,14,17-eicosapentaenoic acid] | 394 ± 43 | 228 ± 10 | – | – | – | inhibition of sdLDL oxidation as compared to vehicle (human sdLDL; 1.0 μM (each agent), 1 hr): 19±8%; effect on sdLDL oxidation as compared to vehicle or DHA (human sdLDL; 10.0 μM, after 4 hours): significantly inhibited sdLDL oxidation; IC50 (human sdLDL; 1 hr, 10 μM CuSO4, read-out: IC50, inhibition of sdLDL oxidation (calculated)): ~2000 nM; inhibition of sdLDL oxidation as compared to vehicle (human sdLDL; each agent at 10.0 μM, 1 hour (FIG. 17)): 92±8%; inhibition of TBARS formation (human sdLDL; highest treatment concentration (10 μM), 1 hr): 93±2%; IC50 ([1]; read-out: IC50, inhibition of glucose-induced sdLDL oxidation): < 1000 nM; inhibition of sdLDL oxidation as compared to vehicle controls ([1]; highest concentration tested): 94%; sdLDL oxidation (formation of MDA) ([1]; highest concentration tested, unit of the source corrected): 0.2 ± 0.1 µM |
| Cc1ccc(C)c(OCCCC(C)(C)C(=O)O)c1 [gemfibrozil] | 377 ± 24 | 228 ± 11 | no significant effect on sdLDL oxidation | did not inhibit glucose-induced sdLDL oxidation | 1.65±0.13 | NO/ONOO^− Ratio (HUVECs; listed as Gemfib): 1.65 ± 0.13 |
| O=C(O)c1cccnc1 [niacin, nicotinic acid] | 346 ± 17 | 238 ± 20 | no significant effect on sdLDL oxidation | did not inhibit glucose-induced sdLDL oxidation | 1.45±0.14 | NO/ONOO^− Ratio (HUVECs; listed as Niacin): 1.45 ± 0.14 |
| Cc1c(C)c2c(c(C)c1O)CC[C@@](C)(CCC[C@H](C)CCC[C@H](C)CCCC(C)C)O2 [vitamin E, α-tocopherol] | – | – | no significant effect on sdLDL oxidation | failed to inhibit sdLDL oxidation | – | increase in sdLDL oxidation as compared to glucose-treated controls [1]: 63% |
